Results reported in patent publication US20100168084A1, “Therapeutic compounds and related methods of use” (priority 2008, published 2010).
Like-named read-outs stand apart in the source and are kept apart here.

Biological target: T1, sirtuin protein (Homo sapiens, UniProt Q96EB6)
T1 sequence (Q96EB6 2-747 limits assumed): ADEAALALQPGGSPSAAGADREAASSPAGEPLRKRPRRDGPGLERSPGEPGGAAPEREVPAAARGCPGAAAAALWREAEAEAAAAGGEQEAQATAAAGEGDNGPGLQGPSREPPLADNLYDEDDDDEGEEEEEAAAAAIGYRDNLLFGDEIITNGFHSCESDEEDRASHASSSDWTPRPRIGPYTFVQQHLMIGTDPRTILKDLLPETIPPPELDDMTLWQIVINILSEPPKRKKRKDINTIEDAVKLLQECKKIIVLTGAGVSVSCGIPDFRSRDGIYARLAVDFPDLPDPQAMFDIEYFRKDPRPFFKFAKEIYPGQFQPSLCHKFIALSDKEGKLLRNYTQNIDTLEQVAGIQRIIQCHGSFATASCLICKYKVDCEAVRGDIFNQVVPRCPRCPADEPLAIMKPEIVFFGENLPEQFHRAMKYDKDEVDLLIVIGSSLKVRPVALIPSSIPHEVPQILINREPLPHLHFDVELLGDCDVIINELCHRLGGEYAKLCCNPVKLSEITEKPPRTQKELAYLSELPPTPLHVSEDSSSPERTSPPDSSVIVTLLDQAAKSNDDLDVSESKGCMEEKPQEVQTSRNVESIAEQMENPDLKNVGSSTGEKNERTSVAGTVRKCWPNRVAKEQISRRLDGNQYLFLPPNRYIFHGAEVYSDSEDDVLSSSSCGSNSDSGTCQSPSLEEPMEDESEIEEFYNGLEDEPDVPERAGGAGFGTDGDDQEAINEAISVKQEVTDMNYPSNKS
Test: MS assay (IC50 MS ASSAY / ED50 MS / FOLD ACTIVATION MS)
Format: biochemical
Design: scale not given here

[1] = Table 4, class symbols A′, A, B, D, NA, legend not given
[2] = class symbols (A′, A, B, D, NA), no legend given

COc1cc(C(=O)Nc2ccc(-c3nc4cnccc4s3)s2)cc(OC)c1OC [Compound 520]
A′: ED50 MS ASSAY | ED50 MS ASSAY (Table 4) | ED50 MS ASSAY (Table 4, class symbols) | ED50 MS ASSAY [1] | ED50 MS ASSAY [2]

COc1cc(OC)cc(C(=O)Nc2ccccc2-c2nc3cccnc3[nH]2)c1 [Compound 521]
A′: ED50 MS ASSAY | ED50 MS ASSAY (Table 4) | ED50 MS ASSAY (Table 4, class symbols) | ED50 MS ASSAY [1] | ED50 MS ASSAY [2]

CN(C)c1cccc(C(=O)Nc2ccccc2-c2nc3cccnc3[nH]2)c1 [Compound 524]
A′: ED50 MS ASSAY | ED50 MS ASSAY (Table 4) | ED50 MS ASSAY (Table 4, class symbols) | ED50 MS ASSAY [1] | ED50 MS ASSAY [2]

COc1ccc(C(=O)Nc2ccccc2-c2nc3cccnc3[nH]2)cc1OC [Compound 525]
A′: ED50 MS ASSAY | ED50 MS ASSAY (Table 4) | ED50 MS ASSAY (Table 4, class symbols) | ED50 MS ASSAY [1] | ED50 MS ASSAY [2]

O=C(Nc1ccccc1-c1nc2cccnc2[nH]1)c1ccc(N2CCOCC2)cc1 [Compound 526]
A′: ED50 MS ASSAY | ED50 MS ASSAY (Table 4) | ED50 MS ASSAY (Table 4, class symbols) | ED50 MS ASSAY [1] | ED50 MS ASSAY [2]

O=C(Nc1ccccc1-c1nc2cccnc2[nH]1)c1ccc(N2CCCCC2)cc1 [Compound 527]
A′: ED50 MS ASSAY | ED50 MS ASSAY (Table 4) | ED50 MS ASSAY (Table 4, class symbols) | ED50 MS ASSAY [1] | ED50 MS ASSAY [2]

COc1ccc(C(=O)Nc2ccccc2-c2nc3cccnc3[nH]2)cc1C(F)(F)F [Compound 528]
A′: ED50 MS ASSAY | ED50 MS ASSAY (Table 4) | ED50 MS ASSAY (Table 4, class symbols) | ED50 MS ASSAY [1] | ED50 MS ASSAY [2]

O=C(Nc1ccccc1-c1nc2cccnc2[nH]1)c1cccc(OC(F)(F)F)c1 [Compound 529]
A′: ED50 MS ASSAY | ED50 MS ASSAY (Table 4) | ED50 MS ASSAY (Table 4, class symbols) | ED50 MS ASSAY [1] | ED50 MS ASSAY [2]

COc1cccc(C(=O)Nc2ccccc2-c2nc3cccnc3[nH]2)c1C [Compound 530]
A′: ED50 MS ASSAY | ED50 MS ASSAY (Table 4) | ED50 MS ASSAY (Table 4, class symbols) | ED50 MS ASSAY [1] | ED50 MS ASSAY [2]

COc1ccc(C(=O)Nc2ccccc2-c2nc3cccnc3[nH]2)cc1 [Compound 531]
A′: ED50 MS ASSAY | ED50 MS ASSAY (Table 4) | ED50 MS ASSAY (Table 4, class symbols) | ED50 MS ASSAY [1] | ED50 MS ASSAY [2]

COc1cccc(C(=O)Nc2ccccc2-c2nc3cccnc3[nH]2)c1 [Compound 532]
A′: ED50 MS ASSAY | ED50 MS ASSAY (Table 4) | ED50 MS ASSAY (Table 4, class symbols) | ED50 MS ASSAY [1] | ED50 MS ASSAY [2]

O=C(Nc1ccccc1-c1nc2cccnc2[nH]1)c1ccccc1 [Compound 533]
A′: ED50 MS ASSAY | ED50 MS ASSAY (Table 4) | ED50 MS ASSAY (Table 4, class symbols) | ED50 MS ASSAY [1] | ED50 MS ASSAY [2]

CN(C)c1ccc(C(=O)Nc2ccccc2-c2nc3cccnc3[nH]2)cc1 [Compound 534]
A′: ED50 MS ASSAY | ED50 MS ASSAY (Table 4) | ED50 MS ASSAY (Table 4, class symbols) | ED50 MS ASSAY [1] | ED50 MS ASSAY [2]
